The values below come from patent US20260263429A1, “INHIBITORS OF CA 2+/CALMODULIN-DEPENDENT PROTEIN KINASE II (CAMKII) THAT DO NOT INHIBIT LONG-TERM POTENTIATION (LTP) INDUCTION AND THERAPEUTIC USES THEREOF” (The Regents of the University of Colorado, A Body Corporate, priority 2023, published 2026).

The target of experiment [1] is T1, CaMKII F89G binding to GluN2B in HEK cells (Homo sapiens, UniProt Q9UQM7, F89G).
T1 construct: expressed in transfected cells; host or cells: HEK cells
The experiment is described as follows: Ionomycin-induced co-localization of GFP-CaMKII F89G and mCh-GluN2B in HEK cells. Conditions: 10 μM NM-PP1. It counts as cell-based. The procedure:
(§1) This conclusion also predicts that the LTP stimulus-induced movement of CaMKII to excitatory synapses should be (i) impaired in the CaMKII F89G mutant; but (ii) normalized by pharmacogenetic rescue with NM-PP1. Indeed, both predictions were observed experimentally (FIGS. 4D-4E).
Live imaging of HEK cells. HEK cells were grown and transfected with expression vectors for GFP-CaMKII mutants and pDisplay-mCh-GluN2B-c tail (2BC) as previously described; the GluN2B construct used included a S1303A mutation to avoid potential complications by differential phosphorylation of this regulatory site in the different conditions with or without kinase inhibitors. GFP-CaMKII colocalization with GluN2B in response to a Ca^2+ stimulus induced by 10 μM ionomycin was monitored for 5-10 min at 32° C. in imaging buffer (0.87× Hanks Balanced Salt Solution, 25 mM Hepes pH 7.4, 2 mM glucose, 2 mM CaCl2), 1 mM MgCl2) by fluorescence microscopy. Images were acquired on a Zeiss Axiovert 200M equipped with a climate control chamber, using SlideBook software (Intelligent Imaging Innovations). Colocalization analysis was performed by calculating the Pearson's correlation (correlation index) of pDisplay-mCh-2BC and GFP-CaMKII within the cytoplasm of HEK cells after background subtraction.

For another experiment, the target named is purified CaMKIIα (Homo sapiens, UniProt Q9UQM7). The experiment is described as follows: In vitro kinase reactions with purified CaMKIIα (GluA1 S831, T286, GluN2B S1303 phosphorylation). As to conditions: for Ki: 1 mM ATP, 30° C., AS283 0.41-10 μM, Cheng-Prusoff with Km ATP 33.3 μM. It counts as biochemical. Also noted: made in house; host or cells: baculovirus/Sf9 (CaMKIIα); BL21 bacteria (CaM). The method, then: In a series of exemplary methods, an in vitro kinase assay was used where purified CaMKIIα is incubated at 30° C. with GST-GluA1 alongside ATP. CaMKIIα normally phosphorylates S831 on the GluA1 subunit and this phosphorylation can be measured as a readout of CaMKIIα enzymatic activity (see e.g., FIG. 8B). […] In another exemplary method, binding of purified CaMKIIα to immobilized GST-GluN2B-c was induced by Ca^2+/CaM in the presence of a vehicle (none), 4 mM ADP or with […] AS105. […] At the same time, two exemplary methods were performed to observe ionomycin or chemical LTP (cLTP) induced co-localization of CaMKII and GluN2B either in HEK293 cells co-expressing GFP-CaMKII and mCherry-2BC or dissociated rat hippocampal cultures expressing GFP-CaMKII and mCh-PSD95 intrabody. HEK293 cells, incubating with vehicle or 10 μM AS105, were subjected to ionomycin. Hippocampal cultures, also incubating with either vehicle or 10 μM AS105, were treated with a chemical LTP (cLTP) stimulus (e.g., 100 μM glutamate, 10 μM glycine for 45 seconds). Confocal microscopy images were taken before and after each stimulus.
Therefore, in another exemplary method, the ability of AS283 to selective inhibit CAMKII enzymatic activity without interfering with its binding to GluN2B was tested. In a first method, in vitro kinase reactions were performed at 30° C. in 1 mM ATP measuring purified CaMKIIα phosphorylation of GST-GluA1 S831 with varying concentrations of AS283 (0.41-10 μM).
One possible mechanism by which AS283 could enhance GluN2B binding more than ATP is by suppressing CaMKII-mediated phosphorylation of GluN2B at S1303, as this phosphorylation within the CaMKII binding site on GluN2B reduces CaMKII binding.
In vitro phosphorylation assays. CaMKII-mediated phosphorylation of GluA1 S831 was measured by in vitro kinase reaction with purified GST-GluA1 c-terminal tail. Reactions contained 40 nM CaMKII (or water for negative controls), 1 μM GST-GluA1, 50 mM PIPES pH 7.1, 2 mM CaCl2), 10 mM MgCl2, 1 μM calmodulin, 1-4 mM ATP, and 1 PM of okadaic acid. Reactions were done at 30° C. for 20 s; reactions were stopped by adding SDS-loading buffer and incubation in a boiling water bath for 5 min. GST, phospho-S831, CaMKII, phospho-T286, or phospho-S1303 were detected in the samples by immunoblot analysis.
Km and Ki determination. The inhibition constant Ki was calculated using the Cheng-Prusoff equation for competitive inhibition: Ki=IC50/(1+[ATP]/Km).

For experiment [2], the target named is CaMKII F89G binding to GluN2B (Homo sapiens, UniProt Q9UQM7, F89G). Kind of experiment: In vitro binding of CaMKII F89G to GluN2B. As to conditions: NM-PP1.
CaMKII F89G binding to GluN2B, sequence (Q9UQM7 whole entry F89G): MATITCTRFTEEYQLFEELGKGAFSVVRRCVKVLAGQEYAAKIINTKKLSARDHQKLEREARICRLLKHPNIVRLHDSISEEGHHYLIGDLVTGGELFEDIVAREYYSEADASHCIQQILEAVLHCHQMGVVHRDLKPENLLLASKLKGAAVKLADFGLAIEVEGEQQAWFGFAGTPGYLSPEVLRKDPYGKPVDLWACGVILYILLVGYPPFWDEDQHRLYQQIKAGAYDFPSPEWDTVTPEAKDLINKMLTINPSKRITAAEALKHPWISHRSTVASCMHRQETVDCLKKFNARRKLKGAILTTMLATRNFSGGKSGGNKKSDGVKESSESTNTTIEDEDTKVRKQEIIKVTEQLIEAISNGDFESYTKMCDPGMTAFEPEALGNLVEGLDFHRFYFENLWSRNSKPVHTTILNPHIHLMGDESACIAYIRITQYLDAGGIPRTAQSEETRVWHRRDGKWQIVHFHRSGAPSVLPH
CaMKII F89G binding to GluN2B, sequence (Q13224 836-1484 partner limits assumed): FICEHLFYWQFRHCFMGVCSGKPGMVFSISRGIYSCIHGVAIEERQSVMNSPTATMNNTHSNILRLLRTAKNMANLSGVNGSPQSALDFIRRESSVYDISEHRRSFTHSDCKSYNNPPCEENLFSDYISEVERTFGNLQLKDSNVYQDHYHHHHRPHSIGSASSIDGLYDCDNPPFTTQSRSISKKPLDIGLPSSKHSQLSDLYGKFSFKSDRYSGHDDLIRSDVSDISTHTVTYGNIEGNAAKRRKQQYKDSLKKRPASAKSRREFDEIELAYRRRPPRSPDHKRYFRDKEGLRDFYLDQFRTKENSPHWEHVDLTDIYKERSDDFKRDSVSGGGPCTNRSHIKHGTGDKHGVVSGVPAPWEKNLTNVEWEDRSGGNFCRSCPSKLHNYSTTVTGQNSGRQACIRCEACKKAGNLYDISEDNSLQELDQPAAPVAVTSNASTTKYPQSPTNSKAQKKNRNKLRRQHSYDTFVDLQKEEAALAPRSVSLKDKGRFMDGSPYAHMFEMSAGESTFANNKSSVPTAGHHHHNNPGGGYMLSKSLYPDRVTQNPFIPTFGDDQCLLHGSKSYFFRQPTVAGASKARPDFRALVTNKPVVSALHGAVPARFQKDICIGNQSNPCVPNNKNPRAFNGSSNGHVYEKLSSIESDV
Excerpt: as §1
CaMKII binding to GluN2B in vitro. CaMKII/GluN2B binding assays were done as described. Briefly, GST-GluN2B-c-tail (GST-2BC) was immobilized on anti-GST-antibody-coated microtiter plates (Thermo Scientific), blocked for 30 min with 5% BSA, and then overlaid with […] CaMKII (subunit concentration) in PIPES-buffered saline (pH 7.2) containing: 2 mM Ca^2+, 1 μM CaM, 1 mM Mg^2+, 0.1% BSA, 0.1% Tween-20 for 20 min at room temperature. Addition of 1 mM ADP, 1 mM ATP, 10 μM AS283 (or AS105) or […] NM-PP1 was added accordingly (see figure legends). After extensive washes in buffer containing 1 mM EGTA, GST-2BC and bound CaMKII was eluted for 10 min in SDS-loading buffer at 95° C. Bound CaMKII was measured via immunoblot.

Like-named read-outs stand apart in the source and are kept apart here.

T1 sequence (Q9UQM7 whole entry F89G): as the sequence (Q9UQM7 whole entry F89G) above
T1 sequence (Q13224 836-1484 S1303A partner limits assumed): as the sequence (Q13224 836-1484 partner limits assumed) above, with S468A counted along it

As for `CC(C)(C)n1nc(Cc2cccc3ccccc23)c2c(N)ncnc21` [NM-PP1], the “binding of CaMKII F89G to GluN2B in HEK cells after ionomycin” value in experiment [1] is reported as “fully enabled binding”. On purified CaMKIIα (in vitro kinase reaction in ATP), the “effect on pT286 of CaMKII wildtype” value was “did not affect pT286”. In addition, the “binding of CaMKII F89G to GluN2B in vitro” value in experiment [2] is recorded as “enabled binding of CaMKII F89G to GluN2B also in vitro”.

Turning to `NCCNc1cccc(-c2ccnc3[nH]c4ccccc4c23)c1` [AS283], the Ki turned out to be 71 nM at purified CaMKIIα (read-out: apparent Ki, autophosphorylation of T286 (pT286)) and 17 nM on purified CaMKIIα (read-out: apparent Ki, phosphorylation of GluA1 S831 (pS831)). Besides, on purified CaMKIIα (purified CaMKII and GST-2BC), the “CaMKII-mediated S1303 phosphorylation of wild type GluN2B C-terminus” value is given as “inhibited the CaMKII-mediated S1303 phosphorylation”.
